# Reference: patent US9220723B2, “Cancer therapy” (BRANDEIS UNIVERSITY, priority 2010, dated 2015)
# Key:
# murine DHHC9 mRNA = test: Real-time RT-PCR of DHHC9 mRNA after siRNA transfection; format: cell-based; conditions: NIH3T3 cells, compared to scrambled siRNA
# Experimental: (§1) (A) Relative DHHC9 (SEQ ID NO: 10) mRNA levels in NIH3T3 cells transfected by either DHHC9 (SEQ ID NO: 10) siRNA or control siRNA were determined by real-time RT-PCR. (B) GFP-NRASD12 expressing NIH3T3 cells transfected by either DHHC9 (SEQ ID NO: 10) siRNA or control siRNA were visualized by confocal microscope. Original magnification was 630×.
# (§2) To determine the role of DHHC9 (SEQ ID NO: 10) in NRAS biology, we first examined the effect of DHHC9 (SEQ ID NO: 10) downregulation on cellular localization of oncogenic NRAS (NRASD12). RNA interference (RNAi) is a powerful tool for gene function studies and holds promise for the development of new molecular medicines. RNAi usually downregulate but often not abolish the target mRNAs, which mimic therapies more than gene-knockout. In addition, since DHHC9 (SEQ ID NO: 10) may have substrates other than RAS, knocking out the DHHC9 (SEQ ID NO: 10) gene might be toxic to cells. For these reasons we tested several small interference RNA (siRNA) specific to murine DHHC9 (SEQ ID NO: 10) for their ability to downregulate the DHHC9 (SEQ ID NO: 10) mRNA. […] Still further, the present invention provides systems for identifying cancer patients likely to respond to therapy that includes administration of one or more palmitoyl-acyl transferase inhibitors.
# [1] = system: NIH3T3 cells expressing the GFP-NRASD12 fusion protein; test: Confocal localization of GFP-NRASD12 after DHHC9 siRNA transfection; format: cell-based; conditions: confocal microscopy
# Experimental: as §1, §2
# [2] = mouse, in vivo; cited from earlier work
# [3] = system: NRASD12 expressing NIH3T3 cells; test: Immunofluorescence localization of NRASD12 after FASN inhibitor treatment; format: cell-based; conditions: 1 uM, 3 hrs post-treatment, anti-myc-tag immunofluorescence
# Experimental: Localization of myc-tagged NRASD12 in MSCV-GFP-ires-2xmycNRASD12 infected NIH3T3 cells 3 hrs post-treatment with 1 uM cerulenin or 1 uM C75. NRASD12 were visualized by confocal microscope after probing with anti-myc-tag (9E10) antibody overnight at 4° C. and AlexaFluor-conjugated secondary antibody (red).
# As a proof of principle studies of the effect of FASN inhibitors on NRAS palmitoylation/localization, we examined the effect of cerulenin and C75 on NRASD12 expressing NIH3T3 cells.
# [4] = caused by highly reactive epoxy group; cited from earlier work
# 3T3-NRASD12 cells = test: Cell morphology and foci (sphere) formation, 3T3-NRASD12; format: cell-based; conditions: 3T3-NRASD12 cells cultured for 6 days
# Experimental: (§3) FIG. 16 illustrates the morphology of cultured NIH3T3 cells stably expressing the proteins and miRNAs indicated. Equal numbers (5×10^5) of cells were plated onto 100-mm plates after puromycin selection and were cultured for 6 days before representative pictures were taken (original magnification 100×)
# (§4) Both 3T3-NRASD12 ^28 and 3T3-KRAS4BD12 form sphere-like foci in culture, while 3T3-MiG cells grow as normal NIH3T3 cells (FIG. 16). […] We plated equal cell numbers of scrambled or FASN miRNA-transduced, puromycin-selected 3T3-NRASD12 or 3T3-KRASD12 cell lines cultured for 6 days and observed cell morphology and foci formation (FIG. 16). […] However, these cells had somewhat altered morphology, similar to those observed in 3T3-NRASD12^C181S cells.
# 3T3-KRASD12 cells = test: Cell morphology and foci (sphere) formation, 3T3-KRASD12; format: cell-based; conditions: 3T3-KRASD12 cells cultured for 6 days
# Experimental: as §3, §4
# 3T3-GFP-NRASD12 cells = test: Confocal localization of GFP-NRASD12 after FASN miRNA transduction; format: cell-based; conditions: confocal microscopy
# Source text: (§5) Fixed and permeablized cells were stained with an anti-BIP antibody, followed by an alexafluor 635-conjugated secondary antibody, and visualized on a Leica TCS SP2 Spectral Confocal Microscope. Original magnification was 630×.
# (§6) We then examined the effect of knocking down FASN expression on RAS localization by the RNA interference (RNAi) approach. RNAi is endogenously mediated by microRNA (miRNA) ^30. miRNAs are generated from primary transcripts (pri-miRNAs) and processed into pre-miRNA and eventually mature miRNA. Artificial miRNAs are natural pri-miRNA in which the stem sequence of a miRNA has been substituted with a sequence targeting the gene of interest. In target cells, artificial miRNA undergoes the same processing steps of the parental pri-miRNA. A FASN specific small hairpin (sh) RNA (Open-Biosystems) was cloned into a MSCV-based retroviral shRNAmir (pSM2; Open-Biosystems) vector to generate an artificial miRNA for FASN (the cloning oligo for the FASN shRNA: 5′ TGCTGTTGACAGTGAGCGCCGCTTCTTAGAGATTGGCAAATAGTGAAGCCACAGATGTATTTGCCAATCTCTAAGAAGCGATGCCTACTGCCTCGGA 3′ (SEQ ID NO: 35)). The miRNA is under the control a U6 promoter and the vector includes a puromycin resistance gene under the control of phosphoglycerate kinase (PGK) eukaryotic promoter ^31. […]
# FASN = test: Western blot of FASN expression after FASN miRNA transduction; format: cell-based; conditions: NIH3T3 cell lines, puromycin selected (data not shown)
# Source text: as §6, with “^31. A scrambled shRNA (the cloning oligo: 5′ TGCTGTTGACAGTGAGCGCTTCCTCTCTTTCTCTCCCTTTA GTGAAGCCACAGATGTACAAGGGAGAGAAAGAGAGGAAGGATGCCTACTGCCTCGGA 3′ (SEQ ID NO: 36)) was similarly cloned into pSM2 as a control.” for “^31.”
# [5] = system: NIH3T3 cells expressing GFP-KRAS4BD12; test: Confocal localization of GFP-KRAS4BD12 after FASN miRNA transduction; format: cell-based; conditions: confocal microscopy
# Source text: as §5, §6
molecule,measurement,setting,value
"DHHC9 siRNA: siRNA specific to murine DHHC9; sense SEQ ID NO: 37, antisense SEQ ID NO: 38 (sense GGAAGAAGAACUAUGUAUUAUAUGT; antisense ACAUAUAAUACAUAGUUCUUCUUCCCU; chemistry not given here)",levels of DHHC9 mRNA,murine DHHC9 mRNA,dramatically reduced
same,localization of GFP-NRASD12,[1],mislocalization of GFP-NRASD12 to internal membranes
C=C1C(=O)OC(CCCCCCCC)C1C(=O)O (centres unmarked) [C75],"effects of treatment on metabolism, weight and feeding",[2],"increased metabolism, rapid and significant weight loss, and fasting"
same,localization of NRASD12,[3],mislocalized to internal membranes
"C/C=C/C/C=C/CCC(=O)[C@H]1O[C@H]1C(N)=O [cerulenin, Cerulenin]",stability,[4],innate instability
same,localization of NRASD12,[3],mislocalized to internal membranes
FASN miRNA: FASN specific small hairpin RNA (Open-Biosystems) cloned into pSM2 retroviral shRNAmir vector; cloning oligo SEQ ID NO: 35 (nucleic acid) DNA: TGCTGTTGACAGTGAGCGCCGCTTCTTAGAGATTGGCAAATAGTGAAGCCACAGATGTATTTGCCAATCTCTAAGAAGCGATGCCTACTGCCTCGGA,sphere (foci) formation,3T3-NRASD12 cells,no longer formed spheres
same,sphere (foci) formation,3T3-KRASD12 cells,formed spheres
same,localization of GFP-NRAS,3T3-GFP-NRASD12 cells,mislocalized to endomembranes
same,FASN expression,FASN,largely abolished
same,localization of GFP-KRAS4BD12,[5],localized to both the plasma membrane and internal membranes
